Legend:
[1] = test system: Philadelphia Positive Z119 Acute Lymphoblastic Leukemia Cells; test: Killing of Philadelphia positive Z119 acute lymphoblastic leukemia cells in culture (colony assay in methylcellulose); format: cell-based; details: colonies of more than 20 cells counted at 7-9 days, no exogenous growth factors, read-out: ALL (Z 119) IC50
Method: Z119 cells were plated in 1 ml volumes at a density of 5×10^4 cells/ml, in the absence of exogenous growth factors, into 35 mm petri dishes (Nunc, Gibco) containing IMDM (OCI, Toronto) plus 20% FCS (Cansera Rexdale, ON.) in 0.9% (vol/vol) methylcellulose (Fluka, Switzerland) with the indicated concentration of for various test compounds described above. Cultures were set at 37° C., 5% CO2 in a humidified atmosphere. Colonies consisting of more than 20 cells were counted at 7-9 days using an inverted microscope.

[2] = test system: normal bone marrow cells (BFU-E colonies); test: Effect upon normal bone marrow differentiation in culture (CFU-GEMM assay, BFU-E colonies); format: cell-based; details: Bone marrow cell, 336 h, BFU-E colonies evaluated at 14 days, read-out: NBM (BFU-E) IC50
Method: The CFU-GEMM assay was performed according to Fauser and Messner (1978, Blood, 52(6) 143-8) and Messner and Fausser (1980, Blut, 41(5) 327-33) with some variations. In brief, heparinized bone marrow cells were layered over Percoll (1.077 gm/ml) (Pharmacia Fine Chemical, Piscataway N.J.) and centrifuged at 400 g at 4° C. for 10 minutes to remove neutrophils and RBCs. The fractionated BM cells at […] were cultured in IMDM (OCI, Toronto) containing 0.9% (vol/vol) methylcellulose supplemented with 30% FCS (Cansera Rexdale, ON.) or normal human plasma, a cocktail of cytokines containing G-CSF (10 ng/ml, Amgen), IL-3 (40 U/ml, Immunex), MGF (50 ng/ml, Immunex), Erythropoietin (2 u/ml, Epprex) or TPO (10 ng/ml, Amgen), 5×10^−5 M Bβ-2-mercaptoethanol and the specified concentration of CR4. The culture mixture was plated in 1 ml volumes into 35 mm petri dishes and incubated at 37° C., 5% CO2 in a humidified atmosphere. All cultures were evaluated at 14 days for the number of BFU-E colonies (defined as aggregates of more than 500 hemoglobinized cells or, 3 or more erythroid subcolonies), CFU-GM colonies (defined as granulocyte or monocyte-macrophage cells or both), CFU-Meg colonies (comprising 4 or more megakaryocytes) and CFU-GEMM colonies (a mixed population comprising of all elements).

| SMILES | IC50 [1] [µM] | IC50 [2] [µM] |
| --- | --- | --- |
| COc1cc(/C=C/C=C/C(=O)NCc2ccccc2)ccc1O [CRD-81, 5-(4-Hydroxy-3-methoxyphenyl)-penta-2E,4E-dienoic acid benzylamide] | > 1 | > 10 |
| O=C(/C=C/C=C/c1ccc(O)c(O)c1)NCc1ccccc1 [CRD-82, 5-(3,4-Dihydroxyphenyl)-penta-2E,4E-dienoic acid benzylamide] | 0.46 | > 25 |
| COc1cc(/C=C/C=C/C(=O)NCc2ccc(O)c(O)c2)cc(OC)c1O [CRD-84, 5-(4-Hydroxy-3,5-dimethoxyphenyl)-penta-2E,4E-dienoic acid 3,4-dihydroxybenzylamide] | > 1 | > 10 |
| COc1cc(/C=C/C=C/C(=O)NCc2ccc(O)c(O)c2)ccc1O [CRD-85, 5-(4-Hydroxy-3-methoxyphenyl)-penta-2E,4E-dienoic acid 3,4-dihydroxybenzylamide] | > 1 | > 10 |

Source: patent US7407989B2, “Compounds useful for modulating abnormal cell proliferation” (The Hospital for Sick Children, priority 2004, dated 2008)
